{"source": "paper PMC9813109", "about": "“Phase I dose-escalation study of milademetan in patients with relapsed or refractory acute myeloid leukemia” (International Journal of Hematology, 2022)", "key": {"MDM2–p53 interaction": {"system": "MDM2–p53 interaction", "set-up": "method as in PMID 31310659, PMID 30724592", "settings": "in vitro studies; cited from earlier work"}, "[1]": {"system": "hematologic malignancies like R/R AML and high-risk myelodysplastic syndrome", "settings": "QD 14/28-day schedule, USA phase I, ref NCT02319369, data not published; cited from earlier work"}, "patients with R/R AML": {"system": "patients with R/R AML", "protocol": "This phase I, open-label, and dose-escalation study conducted at eight centers in Japan recruited patients with R/R AML. Four fixed-dose milademetan schedules were planned (Supplementary Fig. 1A). Increases in the milademetan dose were guided by the modified continual reassessment method (mCRM), with a planned maximum dose of 160 mg/day (Supplementary Fig. 1B). Each cohort (90, 120, and 160 mg) consisted of three to six patients. The first cycle was defined as the dose-limiting toxicity (DLT) evaluation period where patients required hospitalization. The number of treatment cycles was not specified, and the study treatment for each patient was continued unless the discontinuation criteria were met.\nIn this study, we only assessed the patients with schedule A‒milademetan was administered once daily on days 1–14 followed by a 14-day rest in a 28-day cycle.\nRelative dose intensity (in percentage) was calculated as a proportion of dose intensity/planned dose intensity (proportion of dose administered/total treatment duration). Safety assessments were completed by documenting the AEs, ECOG PS, laboratory data, body weight, vital signs, and the results of 12 lead ECGs. Serious adverse events (SAEs) were defined as any AEs that caused mortality, were life-threatening, required hospitalization or prolonged existing hospitalization, caused disability or incapacity, or represented other medical conditions. Patients were followed up until the AEs resolved.\nPatients were evaluated for DLT during the first 28 days of cycle 1, defined as any nonhematological AEs of grade ≥ 3 unless attributed to the primary disease course, complications, or concomitant medications. Nonhematological toxicities classified as DLTs were grade 4 AST/ALT, grade 3 AST/ALT lasting ≥ 3 days, grade 3 AST/ALT with grade ≥ 2 total bilirubin, or an inability to complete at least 75% of the prescribed milademetan doses in cycle 1 (28 days) due to grade ≥ 2 events. Hematological toxicities classified as DLTs included failure to recover neutrophil and platelet counts to ≥ 500/mm^3 and ≥ 20,000/mm^3, respectively, that delayed the initiation of cycle 2 for > 2 weeks. DLT evaluation findings were used to determine the MTD. AEs that were not classified as DLTs included grade 3 fatigue of < 3 days; grade 3 nausea or vomiting that resolved to grade ≤ 2 within 2 days after antiemetic therapy; grade 3 diarrheas that resolved to grade ≤ 2 within 2 days after antidiarrheal therapy; and alopecia, febrile neutropenia, and transient laboratory abnormalities either without symptoms or requiring continuous treatment. Examples of non-DLT AEs were grade ≥ 3 alkaline phosphatases, uric acid, amylase, lipase, or hyponatremia that resolved within 72 h of onset. The Common Terminology Criteria for Adverse Events (version 5.0) were used for grading, and each AE was coded using the Medical Dictionary for Regulatory Activities (version 21.1). Criteria for drug dose reduction or interruption are described in Supplementary material.\nAll patients who received at least one milademetan dose were included in the safety analysis set. […] The efficacy analysis set included all patients who received at least one milademetan dose and underwent efficacy evaluation at least once after treatment initiation. […] The biomarker analysis set included all patients who received at least one milademetan dose, whose specimens were collected for biomarker studies, and who had available measurement data. Following the first cycle, doses for subsequent cohorts were guided by an mCRM based on a Bayesian logistic regression model incorporating the escalation with the overdose control principle, clinical evaluation of the toxicological profile, and pharmacokinetics and pharmacodynamics information."}}, "note": "Entries after “also recorded” stand apart in the source; their conditions may differ.", "data": [{"compound": "CC1(C)CCC2(CC1)N[C@@H](C(=O)N[C@@H]1CC[C@@H](C(N)=O)OC1)[C@H](c1ccnc(Cl)c1F)[C@]21C(=O)Nc2cc(Cl)ccc21", "note": "[milademetan]", "values": [{"measurement": "Effect on MDM2–p53 interaction", "setting": "MDM2–p53 interaction", "value": "inhibits the MDM2–p53 interaction"}, {"measurement": "Maximum tolerated dose (MTD)", "setting": "[1]", "value": 160, "unit": "mg"}, {"measurement": "Deaths or AEs leading to treatment discontinuation", "setting": "patients with R/R AML; 14 patients", "value": "No deaths or AEs leading to treatment discontinuation occurred; also recorded: No death or AEs that caused treatment discontinuation were noted"}, {"measurement": "Skin infection, All grades", "setting": "patients with R/R AML; Total (n = 14)", "value": "1 (7.1) n (%)"}, {"measurement": "Skin infection, Grade ≥ 3", "setting": "patients with R/R AML; Total (n = 14)", "value": "1 (7.1) n (%)"}, {"measurement": "Anemia, All grades", "setting": "patients with R/R AML; human, in vivo", "value": "5 (35.7) n (%)"}, {"measurement": "Anemia, Grade ≥ 3", "setting": "patients with R/R AML; human, in vivo", "value": "5 (35.7) n (%)"}, {"measurement": "Anemia, patients with TEAE regardless of causality", "setting": "patients with R/R AML; human, in vivo", "value": 35.7, "unit": "%"}, {"measurement": "Decreased appetite, All grades", "setting": "patients with R/R AML; human, in vivo", "value": "9 (64.3) n (%)"}, {"measurement": "Decreased appetite, Grade ≥ 3", "setting": "patients with R/R AML; human, in vivo", "value": "1 (7.1) n (%)"}, {"measurement": "Decreased appetite, patients with TEAE regardless of causality", "setting": "patients with R/R AML; human, in vivo", "value": 64.3, "unit": "%"}, {"measurement": "Diarrhea, All grades", "setting": "patients with R/R AML; human, in vivo", "value": "3 (21.4) n (%)"}, {"measurement": "Diarrhea, Grade ≥ 3", "setting": "patients with R/R AML; human, in vivo", "value": "1 (7.1) n (%)"}, {"measurement": "Dry mouth, All grades", "setting": "patients with R/R AML; human, in vivo", "value": "3 (21.4) n (%)"}, {"measurement": "Dry mouth, Grade ≥ 3", "setting": "patients with R/R AML; human, in vivo", "value": "0 (0.0) n (%)"}, {"measurement": "Febrile neutropenia, All grades", "setting": "patients with R/R AML; human, in vivo", "value": "7 (50.0) n (%)"}, {"measurement": "Febrile neutropenia, Grade ≥ 3", "setting": "patients with R/R AML; human, in vivo", "value": "7 (50.0) n (%)"}, {"measurement": "Febrile neutropenia, patients with TEAE regardless of causality", "setting": "patients with R/R AML; human, in vivo", "value": 50, "unit": "%"}, {"measurement": "Hypokalemia, All grades", "setting": "patients with R/R AML; human, in vivo", "value": "4 (28.6) n (%)"}, {"measurement": "Hypokalemia, Grade ≥ 3", "setting": "patients with R/R AML; human, in vivo", "value": "1 (7.1) n (%)"}, {"measurement": "Leukopenia, All grades", "setting": "patients with R/R AML; human, in vivo", "value": "1 (7.1) n (%)"}, {"measurement": "Leukopenia, Grade ≥ 3", "setting": "patients with R/R AML; human, in vivo", "value": "1 (7.1) n (%)"}, {"measurement": "Malaise, All grades", "setting": "patients with R/R AML; human, in vivo", "value": "3 (21.4) n (%)"}, {"measurement": "Malaise, Grade ≥ 3", "setting": "patients with R/R AML; human, in vivo", "value": "0 (0.0) n (%)"}, {"measurement": "Nausea, All grades", "setting": "patients with R/R AML; human, in vivo", "value": "6 (42.9) n (%)"}, {"measurement": "Nausea, Grade ≥ 3", "setting": "patients with R/R AML; human, in vivo", "value": "0 (0.0) n (%)"}, {"measurement": "Nausea, patients with TEAE regardless of causality", "setting": "patients with R/R AML; human, in vivo", "value": 42.9, "unit": "%"}, {"measurement": "Neutropenia, All grades", "setting": "patients with R/R AML; human, in vivo", "value": "2 (14.3) n (%)"}, {"measurement": "Neutropenia, Grade ≥ 3", "setting": "patients with R/R AML; human, in vivo", "value": "2 (14.3) n (%)"}, {"measurement": "Neutrophil count decreased, All grades", "setting": "patients with R/R AML; human, in vivo", "value": "1 (7.1) n (%)"}, {"measurement": "Neutrophil count decreased, Grade ≥ 3", "setting": "patients with R/R AML; human, in vivo", "value": "1 (7.1) n (%)"}, {"measurement": "Number of patients with SAEs", "setting": "patients with R/R AML; human, in vivo", "value": 4, "unit": "patients"}, {"measurement": "Patients with TEAEs leading to study treatment interruption", "setting": "patients with R/R AML; human, in vivo", "value": 21.4, "unit": "%"}, {"measurement": "Patients with a TEAE that required dose reduction (acute kidney injury)", "setting": "patients with R/R AML; human, in vivo", "value": 7.1, "unit": "%"}, {"measurement": "Patients with grade ≥ 3 TEAEs", "setting": "patients with R/R AML; human, in vivo", "value": 71.4, "unit": "%"}, {"measurement": "Pharyngitis, All grades", "setting": "patients with R/R AML; human, in vivo", "value": "1 (7.1) n (%)"}, {"measurement": "Pharyngitis, Grade ≥ 3", "setting": "patients with R/R AML; human, in vivo", "value": "1 (7.1) n (%)"}, {"measurement": "Platelet count decreased, All grades", "setting": "patients with R/R AML; human, in vivo", "value": "3 (21.4) n (%)"}, {"measurement": "Platelet count decreased, Grade ≥ 3", "setting": "patients with R/R AML; human, in vivo", "value": "3 (21.4) n (%)"}, {"measurement": "Pneumonia, All grades", "setting": "patients with R/R AML; human, in vivo", "value": "4 (28.6) n (%)"}, {"measurement": "Pneumonia, Grade ≥ 3", "setting": "patients with R/R AML; human, in vivo", "value": "3 (21.4) n (%)"}, {"measurement": "Serious TEAE", "setting": "patients with R/R AML; human, in vivo", "value": "4 (28.6) n (%)"}, {"measurement": "Stomatitis, All grades", "setting": "patients with R/R AML; human, in vivo", "value": "3 (21.4) n (%)"}, {"measurement": "Stomatitis, Grade ≥ 3", "setting": "patients with R/R AML; human, in vivo", "value": "0 (0.0) n (%)"}, {"measurement": "TEAE", "setting": "patients with R/R AML; human, in vivo", "value": "13 (92.9) n (%)"}, {"measurement": "TEAE by CTCAE grade ≤ 2", "setting": "patients with R/R AML; human, in vivo", "value": "3 (21.4) n (%)"}, {"measurement": "TEAE by CTCAE grade ≥ 3", "setting": "patients with R/R AML; human, in vivo", "value": "10 (71.4) n (%)"}, {"measurement": "TEAE leading to treatment interruption: decreased appetite", "setting": "patients with R/R AML; human, in vivo", "value": 1, "unit": "n"}, {"measurement": "TEAE leading to treatment interruption: decreased neutrophil count", "setting": "patients with R/R AML; human, in vivo", "value": 1, "unit": "n"}, {"measurement": "TEAE leading to treatment interruption: decreased platelet count", "setting": "patients with R/R AML; human, in vivo", "value": 1, "unit": "n"}, {"measurement": "TEAE leading to treatment interruption: diarrhea", "setting": "patients with R/R AML; human, in vivo", "value": 1, "unit": "n"}, {"measurement": "TEAE leading to treatment interruption: dysgeusia", "setting": "patients with R/R AML; human, in vivo", "value": 1, "unit": "n"}, {"measurement": "TEAE leading to treatment interruption: febrile neutropenia", "setting": "patients with R/R AML; human, in vivo", "value": 2, "unit": "n"}, {"measurement": "Thrombocytopenia, All grades", "setting": "patients with R/R AML; human, in vivo", "value": "4 (28.6) n (%)"}, {"measurement": "Thrombocytopenia, Grade ≥ 3", "setting": "patients with R/R AML; human, in vivo", "value": "4 (28.6) n (%)"}, {"measurement": "Tolerability", "setting": "patients with R/R AML; human, in vivo", "value": "well tolerated up to 160 mg"}, {"measurement": "Vomiting, All grades", "setting": "patients with R/R AML; human, in vivo", "value": "4 (28.6) n (%)"}, {"measurement": "Vomiting, Grade ≥ 3", "setting": "patients with R/R AML; human, in vivo", "value": "0 (0.0) n (%)"}, {"measurement": "White blood cell count decreased, All grades", "setting": "patients with R/R AML; human, in vivo", "value": "1 (7.1) n (%)"}, {"measurement": "White blood cell count decreased, Grade ≥ 3", "setting": "patients with R/R AML; human, in vivo", "value": "1 (7.1) n (%)"}, {"measurement": "Recommended dose", "setting": "patients with R/R AML; human, in vivo, 28 days", "value": 160, "unit": "mg"}, {"measurement": "Dose dependence of frequency of TEAEs that were grade ≥ 3, serious, or led to dose reduction/treatment interruption", "setting": "patients with R/R AML; in vivo", "value": "No dose-dependent increase was observed"}, {"measurement": "Grade 4 TEAE: decreased neutrophil count", "setting": "patients with R/R AML; in vivo", "value": "one"}, {"measurement": "Grade 4 TEAE: decreased platelet count", "setting": "patients with R/R AML; in vivo", "value": "three"}, {"measurement": "Grade 4 TEAE: neutropenia", "setting": "patients with R/R AML; in vivo", "value": "two"}, {"measurement": "Grade 4 TEAE: thrombocytopenia", "setting": "patients with R/R AML; in vivo", "value": "two"}, {"measurement": "Number of reported SAEs (serious TEAEs)", "setting": "patients with R/R AML; in vivo", "value": "Five"}, {"measurement": "Other laboratory parameters (hematology, blood chemistry, urinalysis), vital signs, ECG parameters", "setting": "patients with R/R AML; in vivo", "value": "No clinically relevant changes from baseline or consistent trends were observed"}, {"measurement": "SAE: febrile neutropenia", "setting": "patients with R/R AML; in vivo", "value": "two"}, {"measurement": "SAE: pneumonia", "setting": "patients with R/R AML; in vivo", "value": "three"}, {"measurement": "Maximum tolerated dose (MTD)", "setting": "patients with R/R AML; up to 160 mg, QD 14/28 schedule", "value": "not reached"}]}]}
